Results from doi:10.1101/2023.11.24.568596v1 (biorxiv, 2023).
Blank lines part the entries; values can stand above or below the molecule they belong to.

Legend:
Conditions in all cases: binder
GSK3B = GSK3B (Homo sapiens, UniProt P49841)
MSK1b = MSK1b (Homo sapiens, UniProt O75582)
DYRK1A = DYRK1A (Homo sapiens, UniProt Q13627)
CLK3 = CLK3 (Homo sapiens, UniProt P49761)
MST3 = MST3 (Homo sapiens, UniProt Q9Y6E0)
DCAMKL1 = target: T1, DCAMKL1 (Homo sapiens, UniProt O15075)
T1 sequence (O15075 1-740): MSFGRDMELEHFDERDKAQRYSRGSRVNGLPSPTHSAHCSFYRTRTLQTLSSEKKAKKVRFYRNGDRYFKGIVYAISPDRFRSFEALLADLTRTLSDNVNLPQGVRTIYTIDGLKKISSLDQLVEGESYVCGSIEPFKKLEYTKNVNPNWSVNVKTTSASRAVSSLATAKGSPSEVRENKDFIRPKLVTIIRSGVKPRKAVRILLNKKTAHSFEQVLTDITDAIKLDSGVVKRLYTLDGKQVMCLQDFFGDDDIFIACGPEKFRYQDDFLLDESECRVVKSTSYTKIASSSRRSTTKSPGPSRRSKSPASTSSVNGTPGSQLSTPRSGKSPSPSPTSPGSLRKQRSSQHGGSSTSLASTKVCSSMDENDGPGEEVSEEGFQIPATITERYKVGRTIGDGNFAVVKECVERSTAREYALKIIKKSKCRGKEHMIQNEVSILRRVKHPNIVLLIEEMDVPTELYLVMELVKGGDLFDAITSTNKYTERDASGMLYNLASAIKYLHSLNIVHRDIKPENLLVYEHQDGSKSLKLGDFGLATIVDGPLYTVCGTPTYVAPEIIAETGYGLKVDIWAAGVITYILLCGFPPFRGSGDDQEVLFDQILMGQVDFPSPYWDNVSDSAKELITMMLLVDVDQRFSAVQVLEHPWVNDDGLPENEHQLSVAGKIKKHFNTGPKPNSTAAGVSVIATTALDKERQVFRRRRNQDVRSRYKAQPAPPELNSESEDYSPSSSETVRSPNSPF

CaMK4 = target: T2, CaMK4 (Homo sapiens, UniProt Q16566)
T2 sequence (Q16566 1-473): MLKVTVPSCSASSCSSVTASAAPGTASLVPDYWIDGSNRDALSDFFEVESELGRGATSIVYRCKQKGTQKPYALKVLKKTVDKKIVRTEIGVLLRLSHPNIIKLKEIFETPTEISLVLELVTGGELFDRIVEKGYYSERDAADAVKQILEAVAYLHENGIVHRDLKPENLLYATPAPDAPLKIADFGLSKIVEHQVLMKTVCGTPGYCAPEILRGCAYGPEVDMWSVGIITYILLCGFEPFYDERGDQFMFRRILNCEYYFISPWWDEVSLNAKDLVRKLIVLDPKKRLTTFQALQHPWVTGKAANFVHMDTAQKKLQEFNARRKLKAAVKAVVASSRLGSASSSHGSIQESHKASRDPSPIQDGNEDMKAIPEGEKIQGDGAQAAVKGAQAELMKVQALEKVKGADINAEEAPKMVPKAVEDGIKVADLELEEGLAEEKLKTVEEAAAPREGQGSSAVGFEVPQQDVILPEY

BIKE = BIKE (Homo sapiens, UniProt Q9NSY1)
Sequence of BIKE (Q9NSY1 whole entry): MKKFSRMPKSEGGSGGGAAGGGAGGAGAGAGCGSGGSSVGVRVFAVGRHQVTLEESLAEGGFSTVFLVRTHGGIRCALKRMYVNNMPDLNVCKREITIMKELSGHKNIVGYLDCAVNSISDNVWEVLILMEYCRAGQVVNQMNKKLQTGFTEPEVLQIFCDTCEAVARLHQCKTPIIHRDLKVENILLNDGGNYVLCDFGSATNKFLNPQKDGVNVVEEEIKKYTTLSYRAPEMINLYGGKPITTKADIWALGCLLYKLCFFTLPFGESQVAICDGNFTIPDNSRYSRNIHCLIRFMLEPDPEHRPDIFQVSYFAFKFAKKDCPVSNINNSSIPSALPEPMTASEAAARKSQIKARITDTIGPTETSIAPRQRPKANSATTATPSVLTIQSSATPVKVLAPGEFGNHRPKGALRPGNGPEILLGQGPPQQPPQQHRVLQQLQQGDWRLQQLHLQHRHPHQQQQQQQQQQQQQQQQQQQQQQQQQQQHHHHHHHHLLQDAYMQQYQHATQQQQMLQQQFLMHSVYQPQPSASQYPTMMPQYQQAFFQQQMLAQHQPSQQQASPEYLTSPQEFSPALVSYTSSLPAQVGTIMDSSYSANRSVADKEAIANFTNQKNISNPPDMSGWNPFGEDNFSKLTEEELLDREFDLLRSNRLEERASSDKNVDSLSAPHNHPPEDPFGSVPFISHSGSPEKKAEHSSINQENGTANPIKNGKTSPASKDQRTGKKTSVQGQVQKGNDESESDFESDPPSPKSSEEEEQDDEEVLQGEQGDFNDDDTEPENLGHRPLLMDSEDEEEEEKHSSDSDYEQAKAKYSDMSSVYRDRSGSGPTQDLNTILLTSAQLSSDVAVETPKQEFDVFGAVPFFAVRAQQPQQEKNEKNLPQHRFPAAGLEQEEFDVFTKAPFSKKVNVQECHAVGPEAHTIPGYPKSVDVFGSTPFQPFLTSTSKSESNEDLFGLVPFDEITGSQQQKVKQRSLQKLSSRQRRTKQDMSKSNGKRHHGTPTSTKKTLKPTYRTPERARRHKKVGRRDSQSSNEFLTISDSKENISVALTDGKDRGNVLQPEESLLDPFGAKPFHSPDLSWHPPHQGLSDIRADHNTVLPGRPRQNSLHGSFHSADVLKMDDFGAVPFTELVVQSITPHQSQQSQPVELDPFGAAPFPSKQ

Sequence of MST3 (Q9Y6E0 whole entry): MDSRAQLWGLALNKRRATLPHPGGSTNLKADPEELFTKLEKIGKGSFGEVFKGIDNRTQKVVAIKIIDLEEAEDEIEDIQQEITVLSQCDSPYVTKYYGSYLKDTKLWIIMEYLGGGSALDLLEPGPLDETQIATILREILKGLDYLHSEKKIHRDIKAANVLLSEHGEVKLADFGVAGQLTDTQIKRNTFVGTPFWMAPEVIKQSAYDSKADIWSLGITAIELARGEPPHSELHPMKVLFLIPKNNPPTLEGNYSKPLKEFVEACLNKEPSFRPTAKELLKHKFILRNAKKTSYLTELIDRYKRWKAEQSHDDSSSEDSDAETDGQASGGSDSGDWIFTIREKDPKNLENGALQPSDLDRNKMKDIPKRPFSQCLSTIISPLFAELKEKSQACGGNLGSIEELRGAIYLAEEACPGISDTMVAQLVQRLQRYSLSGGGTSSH
Sequence of MSK1b (O75582 whole entry): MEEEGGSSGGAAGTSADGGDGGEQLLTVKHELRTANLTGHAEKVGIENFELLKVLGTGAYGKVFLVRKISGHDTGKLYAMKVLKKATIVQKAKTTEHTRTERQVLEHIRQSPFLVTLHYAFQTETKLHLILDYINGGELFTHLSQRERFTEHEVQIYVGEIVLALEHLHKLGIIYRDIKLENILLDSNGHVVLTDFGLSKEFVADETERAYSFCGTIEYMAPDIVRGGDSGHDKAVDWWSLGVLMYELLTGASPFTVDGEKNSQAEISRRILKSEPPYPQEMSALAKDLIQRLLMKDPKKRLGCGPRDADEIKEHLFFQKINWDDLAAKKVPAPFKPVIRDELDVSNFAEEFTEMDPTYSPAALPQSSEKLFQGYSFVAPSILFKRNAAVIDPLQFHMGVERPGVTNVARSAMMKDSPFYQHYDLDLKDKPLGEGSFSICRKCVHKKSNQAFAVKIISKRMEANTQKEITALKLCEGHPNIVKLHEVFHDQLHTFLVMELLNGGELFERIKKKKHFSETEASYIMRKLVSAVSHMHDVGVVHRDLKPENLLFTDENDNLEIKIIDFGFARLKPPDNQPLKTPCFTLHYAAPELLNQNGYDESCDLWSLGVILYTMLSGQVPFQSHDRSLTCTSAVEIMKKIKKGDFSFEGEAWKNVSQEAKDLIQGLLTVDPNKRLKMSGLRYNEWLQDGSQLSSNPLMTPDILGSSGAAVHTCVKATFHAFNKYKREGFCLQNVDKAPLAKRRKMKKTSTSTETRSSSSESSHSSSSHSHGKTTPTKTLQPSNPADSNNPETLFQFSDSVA
Sequence of GSK3B (P49841 whole entry): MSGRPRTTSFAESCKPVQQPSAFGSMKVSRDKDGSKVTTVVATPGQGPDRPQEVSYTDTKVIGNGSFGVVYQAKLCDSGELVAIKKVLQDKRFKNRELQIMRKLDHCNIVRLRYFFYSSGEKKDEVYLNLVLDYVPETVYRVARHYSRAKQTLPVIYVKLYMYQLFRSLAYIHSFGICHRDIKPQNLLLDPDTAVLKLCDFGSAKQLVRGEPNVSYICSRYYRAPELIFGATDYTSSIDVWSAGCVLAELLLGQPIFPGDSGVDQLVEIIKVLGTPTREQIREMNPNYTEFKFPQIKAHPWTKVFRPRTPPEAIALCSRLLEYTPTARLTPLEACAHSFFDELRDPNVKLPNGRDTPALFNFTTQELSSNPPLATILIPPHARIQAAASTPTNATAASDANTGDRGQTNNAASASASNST
Sequence of CLK3 (P49761 whole entry): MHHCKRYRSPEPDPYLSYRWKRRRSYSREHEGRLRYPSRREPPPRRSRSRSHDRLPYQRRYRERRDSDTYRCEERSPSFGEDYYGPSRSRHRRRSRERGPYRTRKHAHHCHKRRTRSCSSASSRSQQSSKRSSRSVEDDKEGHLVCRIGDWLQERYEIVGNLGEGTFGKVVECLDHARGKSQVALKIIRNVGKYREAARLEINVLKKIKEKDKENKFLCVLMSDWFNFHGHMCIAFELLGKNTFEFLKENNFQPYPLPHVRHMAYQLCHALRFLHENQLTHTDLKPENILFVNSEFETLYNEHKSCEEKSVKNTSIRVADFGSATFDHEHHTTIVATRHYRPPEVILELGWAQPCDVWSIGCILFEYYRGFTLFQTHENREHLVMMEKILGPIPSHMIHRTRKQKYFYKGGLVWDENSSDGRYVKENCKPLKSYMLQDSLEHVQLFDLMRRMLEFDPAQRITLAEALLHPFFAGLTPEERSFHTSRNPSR

ΔTm MRLW5 (20) (GSK3B): 1.8 °C
ΔTm MRLW5 (20) (MSK1b): 2.9 °C
ΔTm MRLW5 (20) (DYRK1A): -1.0 °C
ΔTm MRLW5 (20) (CLK3): 0.2 °C
ΔTm MRLW5 (20) (MST3): 11.7 °C
ΔTm MRLW5 (20) (DCAMKL1): 1.0 °C
ΔTm MRLW5 (20) (CaMK4): 2.9 °C
ΔTm MRLW5 (20) (BIKE): 3.7 °C
Structure (SMILES): CNc1ncc2cc(-c3ccc(-c4cccc(C)n4)cc3Cl)c(=O)n(CCCCN)c2n1 [compound 20, MRLW5]

ΔTm MR24 (24) (GSK3B): 0.0 °C
ΔTm MR24 (24) (MSK1b): -1.0 °C
ΔTm MR24 (24) (DYRK1A): 0.1 °C
ΔTm MR24 (24) (CLK3): -0.2 °C
ΔTm MR24 (24) (MST3): 11.0 °C
ΔTm MR24 (24) (DCAMKL1): -2.0 °C
ΔTm MR24 (24) (CaMK4): 1.2 °C
ΔTm MR24 (24) (BIKE): -0.4 °C
Structure (SMILES): Cc1cccc(-c2ccc(-c3cc4cnc(NC(CO)CO)nc4n(CCCCN)c3=O)c(Cl)c2)n1 [compound 24, 8-(4-Aminobutyl)-6-(2-chloro-4-(6-methylpyridin-2-yl)phenyl)-2-((1,3-dihydroxypropan-2-yl)amino)pyrido[2,3-d]pyrimidin-7(8H)-one]

ΔTm 23 (GSK3B): 1.7 °C
ΔTm 23 (MSK1b): 6.4 °C
ΔTm 23 (DYRK1A): -0.3 °C
ΔTm 23 (CLK3): 1.0 °C
ΔTm 23 (MST3): 10.8 °C
ΔTm 23 (DCAMKL1): 4.6 °C
ΔTm 23 (CaMK4): 6.9 °C
ΔTm 23 (BIKE): 6.9 °C
Structure (SMILES): CNc1ncc2cc(-c3ccc(-c4cccc(C)n4)cc3Cl)c(=O)n(C[C@H]3CC[C@H](N)CC3)c2n1 [compound 23, 23]

ΔTm 25 (GSK3B): 3.8 °C
ΔTm 25 (MSK1b): 1.4 °C
ΔTm 25 (DYRK1A): -0.1 °C
ΔTm 25 (CLK3): -0.3 °C
ΔTm 25 (MST3): 11.8 °C
ΔTm 25 (DCAMKL1): 0.1 °C
ΔTm 25 (CaMK4): 5.4 °C
ΔTm 25 (BIKE): 1.8 °C
Structure (SMILES): Cc1cccc(-c2ccc(-c3cc4cnc(NCCCc5ccc(N)cc5)nc4n(CCCCN)c3=O)c(Cl)c2)n1 [compound 25, 8-(4-Aminobutyl)-2-((3-(4-aminophenyl)propyl)amino)-6-(2-chloro-4-(6-methylpyridin-2-yl)phenyl)pyrido[2,3-d]pyrimidin-7(8H)-one]

ΔTm MR26 (26) (GSK3B): 0.8 °C
ΔTm MR26 (26) (MSK1b): -0.4 °C
ΔTm MR26 (26) (DYRK1A): -0.3 °C
ΔTm MR26 (26) (CLK3): -0.4 °C
ΔTm MR26 (26) (MST3): 12.4 °C
ΔTm MR26 (26) (DCAMKL1): -2.0 °C
ΔTm MR26 (26) (CaMK4): 2.2 °C
ΔTm MR26 (26) (BIKE): 0.7 °C
Structure (SMILES): Cc1cccc(-c2ccc(-c3cc4cnc(NCCCN5CCOCC5)nc4n(CCCCN)c3=O)c(Cl)c2)n1 [compound 26, MR26]

ΔTm 22 (GSK3B): 1.3 °C
ΔTm 22 (MSK1b): 0.1 °C
ΔTm 22 (DYRK1A): 0.5 °C
ΔTm 22 (CLK3): -0.4 °C
ΔTm 22 (MST3): 10.5 °C
ΔTm 22 (DCAMKL1): 0.7 °C
ΔTm 22 (CaMK4): 4.8 °C
ΔTm 22 (BIKE): 7.1 °C
Structure (SMILES): CNc1ncc2cc(-c3ccc(-c4cccc(C)n4)cc3Cl)c(=O)n(CCC3CCNCC3)c2n1 [compound 22, 6-(2-Chloro-4-(6-methylpyridin-2-yl)phenyl)-2-(methylamino)-8-(2-(piperidin-4-yl)ethyl)pyrido[2,3-d]pyrimidin-7(8H)-one]
